From BigSolDB 2.1

CN1COCNC1=N[N+](=O)[O-]
solubility (mole fraction)
Conditions | 293.15 K | 298.15 K | 303.15 K | 308.15 K | 313.15 K | 318.15 K | 323.15 K
in DMF | 0.0947 | 0.113 | 0.12 | 0.138 | 0.141 | 0.165 | 0.166
in DMSO | 0.0794 | 0.0978 | 0.104 | 0.115 | 0.12 | 0.123 | 0.14
in acetonitrile | 0.0241 | 0.0318 | 0.0336 | 0.0411 | 0.0436 | 0.0547 | 0.0563
in dichloromethane | 0.0126 | 0.0154 | 0.0162 | 0.0233 | 0.0234 | 0.0265 | 0.0277
in ethanol | 0.00163 | 0.00212 | 0.00241 | 0.00351 | 0.00379 | 0.00445 | 0.00507
in ethyl acetate | 0.00579 | 0.00614 | 0.00633 | 0.0074 | 0.00773 | 0.00866 | 0.0106
in ethylene glycol | 0.00157 | 0.00248 | 0.00289 | 0.00439 | 0.00447 | 0.00527 | 0.00893
in isopropanol | 0.00101 | 0.0013 | 0.0013 | 0.00175 | 0.00242 | 0.00285 | 0.00303
in methanol | 0.00289 | 0.00422 | 0.00447 | 0.00532 | 0.00682 | 0.00759 | 0.00978
in methyl acetate | 0.00741 | 0.00839 | 0.00936 | 0.0115 | 0.0124 | 0.0133 | 0.0157
in n-butanol | 0.00199 | 0.00218 | 0.00234 | 0.00279 | 0.00308 | 0.00321 | 0.00362
in n-propanol | 0.00109 | 0.00146 | 0.00195 | 0.00217 | 0.00247 | 0.00301 | 0.00441
